From US12629405B2, “Ezrin peptide 1 for use in a method of treating COVID-19” ([…], priority 2020, dated 2026)
Ends that are not written are not given here.

How the values were obtained:
[1] = system: SARS-COV-2; assay: Treatment of COVID-19 patients with Ezrin peptide 1 (individual case reports, Examples 1-6); type: in vivo, human
[2] = Toxicity at high dosages; type: in vivo; conditions: high dosages of 50 mg per kg body weight per day or higher
Procedure: The dosage of Ezrin peptide 1 and its analogues is not particularly critical, as Ezrin peptide 1 and its analogues are not toxic even at high dosages of 50 mg per kg body weight per day or higher. Preferably, Ezrin peptide 1 and its analogues are administered to an adult human in an amount of at least 0.1 mg per day, in particular at least 0.2 mg per day, e.g. in an amount of at least 0.5 mg per day, such as 0.1 to 50 mg per day or 0.2 to 20 mg per day or 0.5 to 10 mg per day. Typically for parental administrations lower dosages will be required than for oral or rectal administration. To achieve a rapid relief of the symptoms of COVID-19 it may be reasonable to administer at least 1 mg per day or at least 2 mg per day but in other cases a lower dosage may be suitable.

[3] = system: J-96 Human Cell Line; conditions: cell cultures (Ataullakhanov et al. 2005); cited from earlier work
[4] = system: inflammatory cytokine production; conditions: cell cultures; cited from earlier work

Sequence: TEKKRRETVEREKE [Ezrin peptide 1, NH2_Thr-Glu-Lys-Lys-Arg-Arg-Glu-Thr-Val-Glu-Arg-Glu-Lys-Glu_COOH]
- severe complications such as fibrosis of the lungs ([1]; Example 1): did not occur
- course of disease, symptoms ([1]; Example 1, patient, 0.2 mg s.c. daily, 16.03.2020, 3rd administration): increasing symptoms with strong eye pain
- course of disease, symptoms ([1]; Example 1, patient, 0.2 mg s.c. daily, 17.03.2020, 4th administration): increasing symptoms with more cough
- course of disease, symptoms ([1]; Example 1, patient, 0.2 mg s.c. daily, 18.03.2020, 5th administration): significant signs of recovery, no eye pain, decreasing fever
- course of disease, symptoms ([1]; Example 1, patient, 0.2 mg s.c. daily, 19.03.2020, 6th administration): significant signs of recovery, normal body temperature, no fatigue
- course of disease, symptoms ([1]; Example 1, patient, 0.2 mg s.c. daily, 20.03.2020, 7th administration): return of taste, good general condition
- course of disease, symptoms ([1]; Example 1, patient, 0.2 mg s.c. daily, 21.03.2020, 8th administration): no signs of illness anymore
- course of the disease (duration) ([1]; Example 1, compared to the course expected for patients of this risk group): significantly shorter
- severity of symptoms after administration ([1]; Example 1, compared with what one would have expected in a patient of this risk group): significantly lower
- course of disease, symptoms ([1]; Example 2, patient, 2 mg s.c., 25.04.2020, second dose): still general weakness, shortness of breath, cough, loss of appetite
- body temperature ([1]; Example 2, patient, 2 mg s.c., 26.04.2020 in the evening, third administration): 37.5 °C
- course of disease, symptoms ([1]; Example 2, patient, 2 mg s.c., 26.04.2020, third administration): Still loss of appetite, slight cough
- course of disease, symptoms ([1]; Example 2, patient, 2 mg s.c., 27.04.2020, fourth dose): Slight cough, slight headache
- course of disease, symptoms ([1]; Example 2, patient, 2 mg s.c., 28.04.2020, fifth administration): Only slight pain of touching the scalp, still slight weakness
- course of disease, symptoms ([1]; Example 2, patient, 2 mg s.c., 30.04.2020, sixth administration): Significant improvement of clinical symptoms, normal temperature
- course of disease, symptoms ([1]; Example 2, patient, 01. to 04.05.2020, after six doses, antibiotic coverage): taste completely returned, no more cough, no more fever, clinical well-being
- course of disease, symptoms ([1]; Example 3, patient, 25.12.2020, therapy begun 23.12.2020 with 2 mg/d s.c.): significant improvement of cough and general condition
- course of disease, symptoms ([1]; Example 3, patient, after completion of therapy (2 mg/d then 0.2 mg/d for four days, s.c.)): No further symptoms
- course of disease, symptoms ([1]; Example 4, patient, 25.12.2020, therapy begun 23.12.2020 with 2 mg/d s.c.): significant improvement of cough and general condition
- course of disease, symptoms ([1]; Example 4, patient, after completion of therapy (2 mg/d two days, 0.2 mg/d four days, s.c.)): No further symptoms
- course of disease, symptoms ([1]; Example 5, patient, 26.12.2020, therapy begun 23.12.2020 with 2 mg/d s.c.): significant improvement of symptoms
- shortness of breath ([1]; Example 5, patient, after subsequent 0.2 mg/d s.c. for fourteen days from 15.01.2021): No further shortness of breath
- course of disease, symptoms ([1]; Example 6, patient, 14.12.2020, 0.2 mg/d s.c. begun 10.12.2020): significant improvement of symptoms
- course of disease, symptoms ([1]; Example 6, patient, 20.12.2020, 0.2 mg/d s.c. for ten days): complete recovery of symptoms
- toxicity [2]: not toxic
- anti-viral effect [3]: anti-viral effect
- production of pro- and inflammatory cytokins (e.g. IL-1, IL-6, TNF-alpha) [4]: reduces
- synthesis of alpha- and beta interferons [4]: induces
